Reference: US20250345390A1, “COMBINATION THERAPIES” (Gilead Sciences, Inc., priority 2024, published 2025)

Test system: HDV
Experiment: HBV/HDV co-infected viral spread assay in primary human hepatocytes (PHH)
Assay type: cell-based, hepatitis D virus (HDV) in primary human hepatocytes
Details: primary infection; lonafarnib 5 μM to 6.9 nM for 9 days; BLV 0.8 nM where present
Procedure: Cryopreserved PHH were thawed and cells were recovered by centrifugation at 100×g (Beckman Coulter, Allegra X-14R) through cryopreserved hepatocyte recovery medium (Thermo Fisher Scientific; CM7500) and plated in collagen coated 96-well plates (Thermo Fisher Scientific; CM1096) at a density of 70,000 live cells per well. Cells were plated in William's E medium (Thermo Fisher Scientific; A1217601) supplemented with 3.6% hepatocyte thawing and plating supplement (Thermo Fisher Scientific, A15563), 5% fetal bovine serum (Thermo Fisher Scientific; 16000-036), 1 μM dexamethasone (Thermo Fisher Scientific, A15563), and 0.2% Torpedo antibiotic mix (BioreclamationIVT; Z990008). […]
Vehicle and compound containing wells were normalized such that the final concentration of DMSO was 1.5% (v/v). The medium was collected and extracellular HBsAg was measured by an electrochemiluminescence assay (MSD) according to the manufacturer's instructions (Meso Scale Diagnostics, Rockville, MD). […] Levels of HDV RNA were calculated as fold change relative to DMSO treated sample using the 2-ΔΔCt method (Livak K J, Schmittgen T D. Analysis of relative gene expression data using real-time quantitative PCR and the 2(-Delta Delta C(T)) Method. Methods 2001).

Structure (SMILES): NC(=O)N1CCC(CC(=O)N2CCC([C@H]3c4ncc(Br)cc4CCc4cc(Cl)cc(Br)c43)CC2)CC1 [lonafarnib, (R)-4-(2-(4-(3,10-dibromo-8-chloro-6,11-dihydro-5H-benzo[5,6]cyclohepta[1,2-b]pyridin-11-yl)piperidin-1-yl)-2-oxoethyl)piperidine-1-carboxamide]
- intracellular HDV RNA (qRT-PCR, fold change relative to DMSO): induced dose-dependent intracellular accumulation of HDV RNA
